Data published in the NIST ThermoML archive (doi:10.1021/acs.jced.8b00201).

Key:
[1] = xn = mol fraction of the nth substance listed; details: 100 kPa, Liquid; for viscosity: Concentric cylinders viscometry; for mass density: Vibrating tube method
[2] = 100 kPa, Liquid; for viscosity: Concentric cylinders viscometry; for mass density: Vibrating tube method

O=C1CCCCC1 [cyclohexanone] + CCCCCCCO
[1], x1 = 1
Details	mass density [kg/m3]	viscosity [mPa·s]
293.15 K	948.8	2.3
298.15 K	943.1	2.09
303.15 K	938.2	1.91
308.15 K	933.5	1.75
313.15 K	928.8	1.6
318.15 K	924.4	1.46
323.15 K	920.7	1.34

O=C1CCCCC1 [cyclohexanone]
[2]
Details	mass density [kg/m3]	viscosity [mPa·s]
293.15 K	948.8	2.3
298.15 K	943.1	2.09
303.15 K	938.2	1.91
308.15 K	933.5	1.75
313.15 K	928.8	1.6
318.15 K	924.4	1.46
323.15 K	920.7	1.34

CCCCCCCCCO [nonan-1-ol]
[2]
Details	mass density [kg/m3]	viscosity [mPa·s]
293.15 K	827.5	11.41
298.15 K	824	9.43
303.15 K	820.5	7.86
308.15 K	817.1	6.61
313.15 K	813.6	5.6
318.15 K	810.1	4.78
323.15 K	806.5	4.1

CCCCCCO [hexan-1-ol]
[2]
Details	mass density [kg/m3]	viscosity [mPa·s]
293.15 K	818.7	5.37
298.15 K	815.1	4.58
303.15 K	811.5	3.94
308.15 K	807.9	3.4
313.15 K	804.2	2.95
318.15 K	800.6	2.58
323.15 K	796.8	2.26

CCCCCCCCCCO [decan-1-ol] + O=C1CCCCC1
[1], x2 = 0
Details	mass density [kg/m3]	viscosity [mPa·s]
293.15 K	829.5	14.42
298.15 K	826.1	11.8
303.15 K	822.7	9.76
308.15 K	819.3	8.14
313.15 K	815.8	6.84
318.15 K	812.4	5.8
323.15 K	808.9	4.96

O=C1CCCCC1 [cyclohexanone] + CCCCCCCCCO
[1], x1 = 1
Details	mass density [kg/m3]	viscosity [mPa·s]
293.15 K	948.8	2.3
298.15 K	943.1	2.09
303.15 K	938.2	1.91
308.15 K	933.5	1.75
313.15 K	928.8	1.6
318.15 K	924.4	1.46
323.15 K	920.7	1.34

CCCCCO [pentan-1-ol]
[2]
Details	mass density [kg/m3]	viscosity [mPa·s]
293.15 K	814.5	4.03
298.15 K	810.8	3.49
303.15 K	807.1	3.04
308.15 K	803.3	2.65
313.15 K	799.6	2.32
318.15 K	795.8	2.05
323.15 K	792	1.81

CCCCCO [pentan-1-ol] + O=C1CCCCC1
[1], x2 = 0
Details	mass density [kg/m3]	viscosity [mPa·s]
293.15 K	814.5	4.03
298.15 K	810.8	3.49
303.15 K	807.1	3.04
308.15 K	803.3	2.65
313.15 K	799.6	2.32
318.15 K	795.8	2.05
323.15 K	792	1.81

CCCCCCCO [heptan-1-ol]
[2]
Details	mass density [kg/m3]	viscosity [mPa·s]
293.15 K	822.2	7.03
298.15 K	818.7	5.92
303.15 K	815.2	5.03
308.15 K	811.6	4.3
313.15 K	808	3.71
318.15 K	804.4	3.21
323.15 K	800.7	2.79

CCCCCCO [hexan-1-ol] + O=C1CCCCC1
[1], x2 = 0
Details	mass density [kg/m3]	viscosity [mPa·s]
293.15 K	818.7	5.37
298.15 K	815.1	4.58
303.15 K	811.5	3.94
308.15 K	807.9	3.4
313.15 K	804.2	2.95
318.15 K	800.6	2.58
323.15 K	796.8	2.26

CCCCCCCCCCO [decan-1-ol]
[2]
Details	mass density [kg/m3]	viscosity [mPa·s]
293.15 K	829.5	14.42
298.15 K	826.1	11.8
303.15 K	822.7	9.76
308.15 K	819.3	8.14
313.15 K	815.8	6.84
318.15 K	812.4	5.8
323.15 K	808.9	4.96

CCCCCCCCO [octan-1-ol]
[2]
Details	mass density [kg/m3]	viscosity [mPa·s]
293.15 K	824.9	9.13
298.15 K	821.4	7.62
303.15 K	817.9	6.41
308.15 K	814.4	5.43
313.15 K	810.9	4.63
318.15 K	807.3	3.98
323.15 K	803.7	3.4

CCCCCCCCO [octan-1-ol] + O=C1CCCCC1
[1], x2 = 0
Details	mass density [kg/m3]	viscosity [mPa·s]
293.15 K	824.9	9.13
298.15 K	821.4	7.62
303.15 K	817.9	6.41
308.15 K	814.4	5.43
313.15 K	810.9	4.63
318.15 K	807.3	3.98
323.15 K	803.7	3.4
